In patent publication US9527853B2, “Fused triazole derivatives as gamma secretase modulators” (Ares Trading S.A., priority 2012, dated 2016) one finds Abtot/Ab42 selectivity ranges and IC50 data, which are given here for two compounds.

Experiment [1] concerns AβTotal. Nature of the experiment: Amyloidβ peptide release (AβTotal) assay, AlphaLisa on supernatant of APPswe-HEK cells. Particulars: 24 hours, ratio Abtot versus Ab42. The format is cell-based, human. On the procedure:
(§1) Amyloidβ Peptide Release (Aβ42 & AβTotal) Assay to Determine IC50 Values.
(§2) Amyloidβ peptide release (Aβ42 & AβTotal) assay are performed in 384 well microtiter plates (Perkin Elmer AlphaPlate #6008350) in a final volume of 20 μl, using supernatant coming from APPswe-HEK cells exposed to test compounds. Compounds are dissolved in and diluted in 100% DMSO and incubated with APPswe-HEK cells for 24 hours a 37° C. in 5% CO2. The supernatant from APPswe-HEK cells are mixed with antibodies: for Aβ42 detection: AlphaLisa Amyloid β 1-42 Kit (Perkin Elmer AL203L) Anti-Amyloid β1-42-specific antibody acceptor beads, biotinylated anti-Amyloid “β1-42” antibody and streptavidin (SA) donor beads diluted in AlphaLisa buffer (to the instructions of the supplier). For Aβ total detection: Custom Anti-Amyloid βtotal acceptor beads (6E10 acceptor beads), biotinylated anti-Amyloid “β1-42” antibody (Perkin Elmer AL203L) and streptavidin (SA) donor beads diluted in AlphaLisa buffer (to the instructions of the supplier). After addition of supernatant to the antibody mix, the assay is incubated 4 h and 30 minutes. AmyloidP peptide release (Aβ42 & AβTotal) is measured with a Pherastar FS (BMG) multimode reader using the alphascreen module.

In experiment [2] the test system is Aβ42. Nature of the experiment: Amyloidβ peptide release (Aβ42) assay, AlphaLisa on supernatant of APPswe-HEK cells. Format: cell-based. Particulars: Homo sapiens, 24 hours incubation with compound, read-out: Ab42 IC50 Ranges. On the procedure:
as §1, §2

With `COc1cc(NC(=O)c2nnn3c2CCCC3c2ccccc2C(F)(F)F)ccc1-n1cnc(C)c1` (stereo not shown) [Example 18, N-(3-methoxy-4-(4-methyl-1Himidazol-1-yl)phenyl)-7-(2-(trifluoromethyl)phenyl)-4,5,6,7-tetrahydro-[1,2,3]triazolo[1,5-a]pyridine-3-carboxamide], in experiment [1], the Abtot/Ab42 selectivity ranges entry was “c (c: 50 fold > selectivity ≧ 10 fold)”. The IC50 in experiment [2] fell in the range of 150 to 500 nM.

Turning to `Cc1cn(-c2ccc(NC(=O)c3nnn4c3CCC4c3ccc(Cl)cc3)cc2F)cn1` (stereo not shown) [Example 26, 6-(4-chlorophenyl)-N-(3-fluoro-4-(4-methyl-1H-imidazol-1-yl)phenyl)-5,6-dihydro-4H-pyrrolo[1,2-c][1,2,3]triazole-3-carboxamide], the Abtot/Ab42 selectivity ranges result in experiment [1] is “b (b: 100 fold > selectivity ≧ 50 fold)”. Further, the IC50 in experiment [2] was in the range of 150 to 500 nM.
